One compound from patent US12636292B2, “Method and composition for reversing and/or inhibiting atherosclerosis” (ARJIL BIOTECH HOLDING COMPANY LIMITED, priority 2019, dated 2026) can be followed below.

Data set [1] is described as follows: Body weight in hypercholesterolemic rabbit model. It is filed as in vivo. To be noted: rabbits on chow with 0.5% cholesterol plus 1% extract, 10 mg/kg pure compound or 10 mg/kg lovastatin; during the intervention. On the procedure: (§1) 2 to 3 kg male, New Zealand White rabbits were individually caged and housed in temperature and humidity-controlled rooms. Light-dark cycles were 12 h each. After several days of acclimation, the animals were sequentially assigned to six feeding groups: standard rabbit chow (ND), standard rabbit chow containing 0.5% cholesterol (HF), standard rabbit chow containing both 0.5% cholesterol and 10 mg/kg Lovastatin (L), standard rabbit chow containing both 0.5% cholesterol and 1% ARH003 (ARH003), standard rabbit chow containing both 0.5% cholesterol and 1% ARH004 (ARH004), standard rabbit chow containing both 0.5% cholesterol and 10 mg/kg Pure compound (P).
(§2) Except standard rabbit chow, others groups were given standard rabbit chow containing 0.5% cholesterol for 4 weeks. The daily feeding amount for each rabbit was 50 g/kg body weight per day.
(§3) Diets were administered for 8 weeks, after the animals had adjusted to their new environment. At the beginning and end of the 12 weeks study, the rabbits were anesthetized by an intramuscular injection of Zoletil 50 (1 mL/kg) (Virbac Ltd., France), and blood samples were harvested. Finally, the aortas (from aortic arch to the bifurcation of the iliac arteries) and whole livers were collected from the rabbits after they were sacrificed for further histopathological analyses.

The nature of data set [2]: Blood chemistry analysis (serum triglyceride, total cholesterol) in hypercholesterolemic rabbits. It is filed as in vivo, rabbit. The following applies: week 12; rabbits on 0.5% cholesterol chow plus 1% extract, 10 mg/kg pure compound or 10 mg/kg lovastatin; vs high fat diet group. On the procedure: as §1, §2, §3
The animals were fasted overnight before blood drawing. […]

As for `CC[C@H](C)C(=O)O[C@H]1C[C@@H](C)C=C2C=C[C@H](C)[C@H](CC[C@@H]3C[C@@H](O)CC(=O)O3)[C@H]21` [lovastatin], in data set [1], the body weight gains result is listed as “did not affect”. Moreover, in data set [2], the “serum total cholesterol levels” value was “higher”.
